Tests used:
sclerostin = target: T1, sclerostin (Homo sapiens, UniProt Q9BQB4); experiment: Modulation of sclerostin/Wnt activity: restoring Wnt3a signaling in the presence of sclerostin; format: cell-based; parameters: key to Sclerostin Inhibition Assay; improvement over sclerostin alone: − indicates no improvement over sclerostin protein alone; + indicates an IC100 >10 μM; ++ indicates an IC100 <10 μM; conditions: for Sclerostin Inhibition Assay; improvement over sclerostin alone: IC100 class, Wnt3a signaling in human embryonic cells in the presence of sclerostin
T1 construct: host or cells: human embryonic cells (assay cells)
T1 sequence (Q9BQB4 24-213): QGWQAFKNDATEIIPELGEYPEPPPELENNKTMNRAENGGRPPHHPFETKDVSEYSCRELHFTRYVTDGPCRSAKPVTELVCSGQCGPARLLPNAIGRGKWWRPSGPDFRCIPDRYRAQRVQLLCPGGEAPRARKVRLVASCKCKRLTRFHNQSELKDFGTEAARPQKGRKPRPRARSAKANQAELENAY
Description: Compounds synthesized in accordance with the methods of Examples 1-6 were assayed for their ability to restore Wnt signaling in the presence of sclerostin consistent with a known sclerostin antagonist, sclerostin Mab. See, Ellies et al., J Bone Miner Res 21:1738-1749 (2006). […] The addition of a known sclerostin antagonist inhibited sclerostin inhibition of Wnt3a signaling, thus restoring Wnt3a signaling in the cell (IC100 at 10 μM) (data not shown).

[1] = tested on: MC3T3-E1 (mouse calvarial) osteoblast cells; experiment: Bone formation assay: rescue of sclerostin inhibition of mineralization (total calcium); format: cell-based; parameters: key to Sclerostin Inhibition of Mineralization; improvement over sclerostin alone: − indicates no improvement over sclerostin protein alone; + indicates an IC100 >10 μM; ++ indicates an IC100 <10 μM; conditions: for Sclerostin Inhibition of Mineralization; improvement over sclerostin alone: IC100 class, calcium concentration
Description: Mineralization (crystalline calcium phosphate formation) represents an in vitro model of bone formation. Using an assay in which the amount of mineralization is quantified by measuring total calcium after solubilization of deposited crystalline calcium phosphate, sclerostin was previously shown to inhibit mineralization in MC3T3-E1 (mouse calvarial) osteoblast cells. Li et al., J Bone Miner Res 24:578-588 (2008). Following the protocol described in Li et al., Compounds were assayed for their ability to rescue the inhibition of mineralization by sclerostin in MC3T3 osteoblast cells. […] Addition of a compound of Examples 1-6 neutralized sclerostin-mediated inhibition of mineralization, as reflected by the increase in calcium concentration.

[2] = Metabolic stability in pooled human liver microsomes; format: in vitro ADME; conditions: 0.1 μM compound, human liver microsomes 0.1 mg/mL, NADPH, 37° C., 60 minutes
Description: Compounds of the present invention (0.1 μM) were incubated with microsomes at 37° C. for a total of 60 minutes. The reaction contained pooled human liver microsomal protein (0.1 mg/mL) in potassium phosphate buffer with NADPH. At the indicated time points (0, 5, 15, 30 and 60 minutes). Samples were analyzed by LC/MS/MS and remaining parent drug was calculated using Microsoft Excel (2007). Obach R S, Drug Metab Dispos. 27(11):1350-1359 (1999).

| Compound | Sclerostin Inhibition Assay; improvement over sclerostin alone (sclerostin) | Sclerostin Inhibition of Mineralization; improvement over sclerostin alone [1] | Metabolic Stability [2] | effect on Wnt3a signaling (in words) (sclerostin; human embryonic cells) | effect on mineralization, as measured by calcium concentration (in words) [1] |
| --- | --- | --- | --- | --- | --- |
| Cl.FC(F)(F)c1nccc2c3ccncc3n(CCN3CCOCC3)c12 [Example 1, 4-(2-(1-(Trifluoromethyl)-9H-pyrrolo[2,3-c:5,4-c′]dipyridin-9-yl)ethyl)morpholine hydrochloride salt] | + (+ indicates an IC100 >10 μM) | + (+ indicates an IC100 >10 μM) | ++ (++ indicates a stability >1x) |  |  |
| Cl.[O-][n+]1ccc2c3ccnc(C(F)(F)F)c3n(CCN3CCOCC3)c2c1 [Example 2, 9-(2-Morpholinoethyl)-8-(trifluoromethyl)-9H-pyrrolo[2,3-c:5,4-c′]dipyridine 2-oxide hydrochloride salt] | − | − | ++ (++ indicates a stability >1x) |  |  |
| COc1ccc2c3ccnc(C(F)(F)F)c3n(CCN3CCOCC3)c2n1.Cl [Example 3, 4-(2-(2-Methoxy-8-(trifluoromethyl)-9H-pyrrolo[2,3-b:5,4-c′]dipyridin-9-yl)ethyl)morpholine hydrochloride salt] | ++ (++ indicates an IC100 <10 μM) | ++ (++ indicates an IC100 <10 μM) | ++ (++ indicates a stability >1x) |  |  |
| COc1cc2c(cn1)c1ccnc(C(F)(F)F)c1n2CCN1CCOCC1.Cl [Example 4, 4-(2-(3-Methoxy-6-(trifluoromethyl)-5H-pyrrolo[2,3-c:4,5-c′]dipyridin-5-yl)ethyl)morpholine hydrochloride salt] | ++ (++ indicates an IC100 <10 μM) | ++ (++ indicates an IC100 <10 μM) | ++ (++ indicates a stability >1x) |  |  |
| COc1ncc2c3ccnc(C(F)(F)F)c3n(CCN3CCOCC3)c2n1 [Example 5, 4-(2-(2-Methoxy-8-(trifluoromethyl)-9H-pyrido[4′,3′:4,5]pyrrolo[2,3-d]pyrimidin-9-yl)ethyl)morpholine] | ++ (++ indicates an IC100 <10 μM) | ++ (++ indicates an IC100 <10 μM) | ++ (++ indicates a stability >1x) |  |  |
| COc1nc2c(cc1F)c1ccnc(C(F)(F)F)c1n2CCN1CCOCC1.Cl [Example 6, 4-(2-(3-Fluoro-2-methoxy-8-(trifluoromethyl)-9H-pyrrolo[2,3-b:5,4-c′]dipyridin-9-yl)ethyl)morpholine hydrochloride salt] | ++ (++ indicates an IC100 <10 μM) | ++ (++ indicates an IC100 <10 μM) | ++ (++ indicates a stability >1x) |  |  |
| Sclerostin protein: sclerostin protein, antagonizes Wnt3a signaling and inhibits mineralization; the assays' inhibitory stimulus and baseline | − | − |  | antagonized Wnt3a signaling | significant decrease in mineralization |

Source: patent US12195461B2, “Pyrrolo-dipyridine compounds” (OssiFi Therapeutics LLC, priority 2018, dated 2025)
